# Read-outs that look alike come from different tables or passages of the source.
# Legend:
# FMS (h) = molecular target: T1, FMS (h) (Homo sapiens, UniProt P07333); assay: Kinase HotSpot radiometric assay, activity on CSF-1R (FMS); format: biochemical
# T1 construct: purchased Reaction Biology Corp. (Kinase HotSpot service)
# EMS and FLT3 = assay: Protein Kinase Profiling analysis, selectivity (FIG. 4); format: biochemical
# PAMPA assay = format: in vitro ADME; details: read-out: PAMPA assay Pe Avg
# plasma stability (PS) = format: in vitro ADME
# metabolic stability (MS) = format: in vitro ADME
# CSF-1R = molecular target: T2, CSF-1R (Homo sapiens, UniProt P07333); assay: protein kinase profile for 50 selected protein Kinase (FIG. 5), CSF-1R; format: biochemical; details: single-dose concentration 1.0 μM
# T2 construct: purchased Reaction Biology Corp. (Kinase HotSpot service)
# T2 sequence (P07333 20-972): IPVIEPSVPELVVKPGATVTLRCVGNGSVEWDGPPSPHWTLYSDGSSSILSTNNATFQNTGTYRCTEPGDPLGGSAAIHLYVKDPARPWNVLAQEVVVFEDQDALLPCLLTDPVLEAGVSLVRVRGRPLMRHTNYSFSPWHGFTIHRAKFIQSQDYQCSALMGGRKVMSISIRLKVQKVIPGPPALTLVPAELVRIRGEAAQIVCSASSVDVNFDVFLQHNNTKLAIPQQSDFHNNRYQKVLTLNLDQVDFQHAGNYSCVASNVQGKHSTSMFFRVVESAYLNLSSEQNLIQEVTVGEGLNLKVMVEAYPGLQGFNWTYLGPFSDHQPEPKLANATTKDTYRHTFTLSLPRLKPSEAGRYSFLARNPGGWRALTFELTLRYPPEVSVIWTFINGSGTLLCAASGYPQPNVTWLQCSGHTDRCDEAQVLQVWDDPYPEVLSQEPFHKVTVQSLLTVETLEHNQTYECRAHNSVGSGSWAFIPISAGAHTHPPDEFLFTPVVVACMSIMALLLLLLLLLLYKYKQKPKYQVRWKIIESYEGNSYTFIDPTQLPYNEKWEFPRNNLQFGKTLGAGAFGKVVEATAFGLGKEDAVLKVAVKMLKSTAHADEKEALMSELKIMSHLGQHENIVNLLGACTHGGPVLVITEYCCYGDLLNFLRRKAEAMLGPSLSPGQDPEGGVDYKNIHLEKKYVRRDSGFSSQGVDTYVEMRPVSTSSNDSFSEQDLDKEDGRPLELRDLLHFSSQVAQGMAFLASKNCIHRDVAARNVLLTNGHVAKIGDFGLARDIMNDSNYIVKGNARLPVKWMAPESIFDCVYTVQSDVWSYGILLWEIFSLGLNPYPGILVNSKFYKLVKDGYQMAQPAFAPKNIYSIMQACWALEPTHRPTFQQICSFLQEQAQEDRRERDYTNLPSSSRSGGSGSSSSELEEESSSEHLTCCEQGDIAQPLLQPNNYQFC
# CRaf = molecular target: T3, CRaf (Homo sapiens, UniProt P04049); assay: protein kinase profile for 50 selected protein Kinase (FIG. 5), CRaf; format: biochemical; details: single-dose concentration 1.0 μM
# T3 construct: purchased Reaction Biology Corp. (Kinase HotSpot service)
# T3 sequence (P04049 whole entry): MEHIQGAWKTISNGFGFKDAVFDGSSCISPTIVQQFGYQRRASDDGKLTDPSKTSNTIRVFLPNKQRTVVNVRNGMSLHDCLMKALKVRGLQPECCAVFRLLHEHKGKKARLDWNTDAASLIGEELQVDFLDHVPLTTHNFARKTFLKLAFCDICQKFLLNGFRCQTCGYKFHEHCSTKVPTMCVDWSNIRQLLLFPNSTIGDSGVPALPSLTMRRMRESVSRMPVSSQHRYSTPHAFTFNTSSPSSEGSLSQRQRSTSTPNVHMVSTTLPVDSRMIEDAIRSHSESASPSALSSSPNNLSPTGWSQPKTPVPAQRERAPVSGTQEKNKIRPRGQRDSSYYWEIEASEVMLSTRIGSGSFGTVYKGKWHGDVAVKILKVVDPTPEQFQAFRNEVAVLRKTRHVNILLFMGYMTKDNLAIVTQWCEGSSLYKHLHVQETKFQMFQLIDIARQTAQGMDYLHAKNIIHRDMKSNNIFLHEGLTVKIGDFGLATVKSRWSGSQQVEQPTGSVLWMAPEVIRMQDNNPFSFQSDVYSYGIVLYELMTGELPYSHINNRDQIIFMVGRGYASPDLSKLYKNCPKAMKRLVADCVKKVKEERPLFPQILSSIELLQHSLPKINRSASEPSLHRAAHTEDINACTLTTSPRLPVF
# BRafV600E = molecular target: T4, BRafV600E (Homo sapiens, UniProt P15056, V600E); assay: protein kinase profile for 50 selected protein Kinase (FIG. 5), BRafV600E; format: biochemical; details: single-dose concentration 1.0 μM
# T4 construct: purchased Reaction Biology Corp. (Kinase HotSpot service)
# T4 sequence (P15056 416-766 V600E limits assumed): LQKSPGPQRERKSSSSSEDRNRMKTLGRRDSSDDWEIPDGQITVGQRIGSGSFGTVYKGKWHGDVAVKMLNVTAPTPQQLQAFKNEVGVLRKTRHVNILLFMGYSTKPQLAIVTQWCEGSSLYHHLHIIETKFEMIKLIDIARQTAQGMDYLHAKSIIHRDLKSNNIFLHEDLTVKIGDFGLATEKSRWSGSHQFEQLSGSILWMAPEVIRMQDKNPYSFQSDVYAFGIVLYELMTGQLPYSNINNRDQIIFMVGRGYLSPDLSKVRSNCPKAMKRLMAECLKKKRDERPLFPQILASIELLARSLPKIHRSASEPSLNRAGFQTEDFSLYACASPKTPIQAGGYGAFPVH
# Lyn = molecular target: T5, Lyn (Homo sapiens, UniProt P07948); assay: protein kinase profile for 50 selected protein Kinase (FIG. 5), Lyn; format: biochemical; details: single-dose concentration 1.0 μM
# T5 construct: purchased Reaction Biology Corp. (Kinase HotSpot service)
# T5 sequence (P07948 whole entry): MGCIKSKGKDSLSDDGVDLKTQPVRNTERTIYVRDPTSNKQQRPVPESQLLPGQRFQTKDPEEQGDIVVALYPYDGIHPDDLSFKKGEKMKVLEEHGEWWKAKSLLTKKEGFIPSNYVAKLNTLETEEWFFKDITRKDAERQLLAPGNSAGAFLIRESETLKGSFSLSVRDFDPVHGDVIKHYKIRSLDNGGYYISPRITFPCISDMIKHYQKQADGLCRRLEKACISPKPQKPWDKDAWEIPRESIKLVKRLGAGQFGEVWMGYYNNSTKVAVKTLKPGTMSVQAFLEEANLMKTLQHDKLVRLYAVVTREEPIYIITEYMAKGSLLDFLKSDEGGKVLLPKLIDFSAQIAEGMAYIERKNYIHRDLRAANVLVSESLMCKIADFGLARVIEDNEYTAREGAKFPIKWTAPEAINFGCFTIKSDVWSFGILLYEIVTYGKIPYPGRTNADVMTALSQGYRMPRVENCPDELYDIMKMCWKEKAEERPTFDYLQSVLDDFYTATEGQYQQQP
# [1] = Table 3, read-out: IC50 (M) on FMS
# T1 sequence (P07333 20-972): as the sequence (P07333 20-972) above
Structure (SMILES),IC50 (FMS (h); [1]) [M],"IC50 (FMS (h); Table 1, read-out: IC50) [M]",further results
"Cc1cc(C(=O)Nc2ccc(C3CC(C)(C)NC(C)(C)C3)cc2C2=CCC(C)CC2)no1 (stereo not shown) [Compound 92b, 5-methyl-N-(4′-methyl-5-(2,2,6,6-tetramethylpiperidin-4-yl)-2′,3′,4,5′-tetrahydro-[1,1′-biphenyl]-2-yl)isoxazole-3-carboxamide]",< 1e-07,,"IC50 (FMS (h); Table 2, read-out: IC50 (μm)): < 1e-07 M; kinase selectivity of EMS and FLT3 (EMS and FLT3): high selectivity"
"Cc1cc(C(=O)Nc2cc(NC(=O)c3cc(N4CCN(C)CC4)cc(C(F)(F)F)c3)ccc2C)no1 [Compound 5a, 5-methyl-N-(2-methyl-5-(3-(4-methylpiperazin-1-yl)-5-(trifluoromethyl)benzamido)phenyl)isoxazole-3-carboxamide]",,,Papp (PAMPA assay): 55.5 ×10⁻⁶ cm/s; PS (human) @30 min (plasma stability (PS); 30 min): > 100%; PS (human) @60 min (plasma stability (PS); 60 min): > 100%
"Cc1cc(C(=O)Nc2ccc(C3CCN(C)CC3)cc2C2CCCCC2)no1 [Compound 69b, N-(2-cyclohexyl-4-(1-methylpiperidin-4-yl)phenyl)-5-methylisoxazole-3-carboxamide]",> 1e-06,> 1e-06,
"CCN1CCC(c2ccc(NC(=O)c3cc(C)on3)c(C3CCCCC3)c2)CC1 [Compound 74b, N-(2-cyclohexyl-4-(1-ethylpiperidin-4-yl)phenyl)-5-methylisoxazole-3-carboxamide]",> 1e-06,> 1e-06,
"Cc1cc(C(=O)Nc2ccc(C3CCNCC3)cc2C2=CCCCC2)no1 [Compound 60b, 5-methyl-N-(5-(piperidin-4-yl)-2′,3′,4′,5′-tetrahydro-[1,1′-biphenyl]-2-yl)isoxazole-3-carboxamide]",< 1e-07,< 1e-07,
"Cc1cc(C(=O)Nc2ccc(C3CCNCC3)cc2C2CCCC2)no1 [Compound 66b, N-(2-Cyclopentyl-4-(piperidin-4-yl)phenyl)-5-methylisoxazole-3-carboxamide]",> 1e-06,> 1e-06,
"CCN1CCC(c2ccc(NC(=O)c3cc(C)on3)c(C3=CCC(C)CC3)c2)CC1 (stereo not shown) [Compound 72b, N-(5-(1-Ethylpiperidin-4-yl)-4′-methyl-2′,3′,4′,5′-tetrahydro-[1,1′-biphenyl]-2-yl)-5-methylisoxazole-3-carboxamide]",< 1e-07,< 1e-07,
"Cc1cc(C(=O)Nc2cc(NC(=O)c3ccc4nn[nH]c4c3)ccc2C)no1 [Compound 5r, N-(5-(1H-benzo[d][1,2,3]triazole-6-carboxamido)-2-methylphenyl)-5-methylisoxazole-3-carboxamide]",> 1e-06,,
"Cc1cc(C(=O)Nc2ccc(C3CC[N+](C)(C)CC3)cc2C2=CCCCC2)no1 [Compound 79b, 1,1-dimethyl-4-(6-(5-methylisoxazole-3-carboxamido)-2′,3′,4′,5′-tetrahydro-[1,1′-biphenyl]-3-yl)piperidin-1-ium]",< 1e-07,,
"Cc1cc(C(=O)Nc2ccc(C3CCNCC3)cc2C2=CCC(C)CC2)no1 (stereo not shown) [Compound 63b, 5-Methyl-N-(4′-methyl-5-(piperidin-4-yl)-2′,3′,4′,5′-tetrahydro-[1,1′-biphenyl]-2-yl)isoxazole-3-carboxamide]",< 1e-07,< 1e-07,
"Cc1ccc(NC(=O)c2cc(N3CCN(C)CC3)cc(C(F)(F)F)c2)cc1NC(=O)c1cnoc1C [Comparative example 1, reference compound]",,,"IC50 (FMS (h); Table 5, read-out: IC50 on CSF-1R): 1.03e-08 M; MS (human) %@60 min (metabolic stability (MS)): <10%; inhibitory activity against CSF-1R (CSF-1R): inhibitory activity; inhibitory activity against CRaf (CRaf): inhibitory activity; inhibitory activity against BRafV600E (BRafV600E): inhibitory activity; inhibitory activity against Lyn (Lyn): inhibitory activity"
"CCN1CCC(c2ccc(NC(=O)c3cc(C)on3)c(C3CCCC3)c2)CC1 [Compound 75b, N-(2-Cyclopentyl-4-(1-ethylpiperidin-4-yl)phenyl)-5-methylisoxazole-3-carboxamide]",> 1e-06,> 1e-06,
